The source of these data is patent publication US10947252B2, “Inhibitors of KEAP1-Nrf2 protein-protein interaction” (Janssen Pharmaceutica NV, priority 2018, dated 2021).

For the assay, the system named is Glo-Response ARE-luc2P HEK293 cell line. As to the kind of experiment: ARE luciferase reporter cell-based assay.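 Note: luciferase signal tracks Nrf2 activation of the ARE once compounds disrupt KEAP1-Nrf2 binding, read with One-Glo reagent, DMSO serving as low control.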 Particulars: Homo sapiens, HEK293, 24 h, average of results obtained.
On to `Cc1ccc([C@H](CC(=O)O)c2ccn3c(C(F)(F)F)nnc3c2C)cc1CN1C[C@@H]2CCCCN2c2ccccc2S1(=O)=O` (relative stereo) [Example 299, (*S)-3-(3-(((*S)-5,5-Dioxido-7,7a,8,9,10,11-hexahydro-6H-benzo[f]pyrido[2,1-d][1,2,5]thiadiazepin-6-yl)methyl)-4-methylphenyl)-3-(8-methyl-3-(trifluoromethyl)-[1,2,4]triazolo[4,3-a]pyridin-7-yl)propanoic Acid], for which a half-maximal response (EC50) required 11.4 nM.

For `Cc1cnc2c(c1)S(=O)(=O)N(Cc1cc([C@H](CC(=O)O)c3ccn4c(C(F)(F)F)nnc4c3C)ccc1C)C[C@@H]1CCCCN21` (relative stereo) [Example 307, (*S)-3-(4-methyl-3-(((*S)-3-methyl-5,5-dioxido-7,7a,8,9,10,11-hexahydro-6H-dipyrido[2,1-d:2′,3′-f][1,2,5]thiadiazepin-6-yl)methyl)phenyl)-3-(8-methyl-3-(trifluoromethyl)-[1,2,4]triazolo[4,3-a]pyridin-7-yl)propanoic Acid], the EC50 is 2 nM.

Molecule `Cc1ccc([C@H](CC(=O)O)c2ccn3c(C(F)(F)F)nnc3c2C)cc1CN1C[C@@H]2CCCCN2c2ncc(F)cc2S1(=O)=O` (relative stereo) [Example 309, (*S)-3-(3-(((*S)-3-fluoro-5,5-dioxido-7,7a,8,9,10,11-hexahydro-6H-dipyrido[2,1-d:2′,3′-f][1,2,5]thiadiazepin-6-yl)methyl)-4-methylphenyl)-3-(8-methyl-3-(trifluoromethyl)-[1,2,4]triazolo[4,3-a]pyridin-7-yl)propanoic Acid] had an EC50 of 0.9 nM.

In turn, `Cc1ccc([C@H](CC(=O)O)c2ccn3c(C(F)(F)F)nnc3c2C)cc1CN1C[C@H]2CCCCN2c2ncc(F)cc2S1(=O)=O` (relative stereo) [Example 310, (*S)-3-(3-(((*R)-3-fluoro-5,5-dioxido-7,7a,8,9,10,11-hexahydro-6H-dipyrido[2,1-d:2′,3′-f][1,2,5]thiadiazepin-6-yl)methyl)-4-methylphenyl)-3-(8-methyl-3-(trifluoromethyl)-[1,2,4]triazolo[4,3-a]pyridin-7-yl)propanoic Acid] gave an EC50 of 3 nM.

The molecule `Cc1ccc([C@H](CC(=O)O)c2ccn3c(C(F)F)nnc3c2C)cc1CN1C[C@@H]2CCCCN2c2ncccc2S1(=O)=O` (relative stereo) [Example 447, (*S)-3-(3-(Difluoromethyl)-8-methyl-[1,2,4]triazolo[4,3-a]pyridin-7-yl)-3-(3-(((*S)-5,5-dioxido-7,7a,8,9,10,11-hexahydro-6H-dipyrido[2,1-d:2′,3′-f][1,2,5]thiadiazepin-6-yl)methyl)-4-methylphenyl)propanoic Acid] returned a 50% effective concentration (EC50) of 2.93 nM.

For the molecule `Cc1ccc([C@H](CC(=O)O)c2ccn3c(C(F)(F)F)nnc3c2C)cc1CN1C[C@H]2CCC(F)(F)CN2c2ncccc2S1(=O)=O` (relative stereo) [Example 454, (*S)-3-(3-(((*R)-10,10-difluoro-5,5-dioxido-7,7a,8,9,10,11-hexahydro-6H-dipyrido[2,1-d:2′,3′-f][1,2,5]thiadiazepin-6-yl)methyl)-4-methylphenyl)-3-(8-methyl-3-(trifluoromethyl)-[1,2,4]triazolo[4,3-a]pyridin-7-yl)propanoic Acid], a half-maximal response (EC50) required 38.3 nM.

On to `CC[C@@H]1CN(Cc2cc([C@H](CC(=O)O)c3ccn4c(C(F)F)nnc4c3C)ccc2C)S(=O)(=O)c2cccnc2O1` (relative stereo) [Example 464, (*S)-3-(3-(Difluoromethyl)-8-methyl-[1,2,4]triazolo[4,3-a]pyridin-7-yl)-3-(3-(((R)-4-ethyl-1,1-dioxido-3,4-dihydro-2H-pyrido[2,3-b][1,4,5]oxathiazepin-2-yl)methyl)-4-methylphenyl)propanoic Acid], for which the EC50 turned out to be 24.7 nM.

`Cc1cnc2c(c1)S(=O)(=O)N(Cc1nc([C@@H](CC(=O)O)c3ccn4c(C(F)(F)F)nnc4c3C)ccc1C)C[C@@H]1CCCCN21` (relative stereo) [Example 488, (*S)-3-(8-Methyl-3-(trifluoromethyl)-[1,2,4]triazolo[4,3-a]pyridin-7-yl)-3-(5-methyl-6-(((*S)-3-methyl-5,5-dioxido-7,7a,8,9,10,11-hexahydro-6H-dipyrido[2,1-d:2′,3′-f][1,2,5]thiadiazepin-6-yl)methyl)pyridin-2-yl)propanoic Acid] yielded a concentration for a half-maximal effect (EC50) of 11.9 nM.

`Cc1ccc([C@H](c2ccn3c(C(F)(F)F)nnc3c2C)C(C)C(=O)O)nc1CN1C[C@@H]2CCCCN2c2ncc(F)cc2S1(=O)=O` (relative stereo) [Example 506, (3*S)-3-(6-(((S)-3-fluoro-5,5-dioxido-7,7a,8,9,10,11-hexahydro-6H-dipyrido[2,1-d:2′,3′-f][1,2,5]thiadiazepin-6-yl)methyl)-5-methylpyridin-2-yl)-2-methyl-3-(8-methyl-3-(trifluoromethyl)-[1,2,4]triazolo[4,3-a]pyridin-7-yl)propanoic Acid] registered an EC50 of 7.83 nM.

`Cc1ccc([C@@H](c2ccn3c(C(F)(F)F)nnc3c2C)C(C)C(=O)O)nc1CN1C[C@@H]2CCCCN2c2ncc(F)cc2S1(=O)=O` (relative stereo) [Example 507, (3*R)-3-(6-(((*S)-3-Fluoro-5,5-dioxido-7,7a,8,9,10,11-hexahydro-6H-dipyrido[2,1-d:2′,3′-f][1,2,5]thiadiazepin-6-yl)methyl)-5-methylpyridin-2-yl)-2-methyl-3-(8-methyl-3-(trifluoromethyl)-[1,2,4]triazolo[4,3-a]pyridin-7-yl)propanoic Acid] showed an EC50 of 0.73 nM.

Molecule `Cc1ccc([C@H](CC(=O)O)c2ccn3c(C(F)F)nnc3c2C)cc1CN1C[C@@H]2CCCCN2c2ncc(F)cc2S1(=O)=O` (relative stereo) [Example 511, (*S)-3-(3-(Difluoromethyl)-8-methyl-[1,2,4]triazolo[4,3-a]pyridin-7-yl)-3-(3-(((*S)-3-fluoro-5,5-dioxido-7,7a,8,9,10,11-hexahydro-6H-dipyrido[2,1-d:2′,3′-f][1,2,5]thiadiazepin-6-yl)methyl)-4-methylphenyl)propanoic Acid] came in with an EC50 of 1.52 nM.

`Cc1ccc([C@H](CC(=O)O)c2ccn3c(C(F)F)nnc3c2C)cc1CN1C[C@H]2CCCCN2c2ncc(F)cc2S1(=O)=O` (relative stereo) [Example 512, (*S)-3-(3-(Difluoromethyl)-8-methyl-[1,2,4]triazolo[4,3-a]pyridin-7-yl)-3-(3-(((*R)-3-fluoro-5,5-dioxido-7,7a,8,9,10,11-hexahydro-6H-dipyrido[2,1-d:2′,3′-f][1,2,5]thiadiazepin-6-yl)methyl)-4-methylphenyl)propanoic Acid] registered an EC50 of 3.21 nM.

As for `CCc1c([C@H](c2ccc(C)c(CN3C[C@@H]4CCCCN4c4ncc(C)cc4S3(=O)=O)c2)C(C)C(=O)O)ccn2c(C(F)(F)F)nnc12` (relative stereo) [Example 513, (3*S)-3-(8-Ethyl-3-(trifluoromethyl)-[1,2,4]triazolo[4,3-a]pyridin-7-yl)-2-methyl-3-(4-methyl-3-(((*S)-3-methyl-5,5-dioxido-7,7a,8,9,10,11-hexahydro-6H-dipyrido[2,1-d:2′,3′-f][1,2,5]thiadiazepin-6-yl)methyl)phenyl)propanoic Acid], a half-maximal response (EC50) required 1.63 nM.

Consider `Cc1cnc2c(c1)S(=O)(=O)N(Cc1cc([C@@H](c3ccn4c(C(F)(F)F)nnc4c3C)C(C)C(=O)O)ccc1C)C[C@@H]1CCCCN21` (relative stereo) [Example 514, (3*S)-2-Methyl-3-(4-methyl-3-(((*S)-3-methyl-5,5-dioxido-7,7a,8,9,10,11-hexahydro-6H-dipyrido[2,1-d:2′,3′-f][1,2,5]thiadiazepin-6-yl)methyl)phenyl)-3-(8-methyl-3-(trifluoromethyl)-[1,2,4]triazolo[4,3-a]pyridin-7-yl)propanoic Acid], for which it took 1.7 nM to reach a half-maximal effect (EC50).

As for `CCc1c([C@H](c2ccc(C)c(CN3C[C@H]4CCCCN4c4ncc(C)cc4S3(=O)=O)c2)C(C)C(=O)O)ccn2c(C(F)(F)F)nnc12` (relative stereo) [Example 515, (3*S)-3-(8-Ethyl-3-(trifluoromethyl)-[1,2,4]triazolo[4,3-a]pyridin-7-yl)-2-methyl-3-(4-methyl-3-(((*R)-3-methyl-5,5-dioxido-7,7a,8,9,10,11-hexahydro-6H-dipyrido[2,1-d:2′,3′-f][1,2,5]thiadiazepin-6-yl)methyl)phenyl)propanoic Acid], the midpoint of the response, the EC50, lay at 1.33 nM.

In turn, `CCc1c([C@@H](CC(=O)O)c2ccc(C)c(CN3C[C@@H]4CCCCN4c4ncc(C)cc4S3(=O)=O)c2)ccn2c(C(F)(F)F)nnc12` (relative stereo) [Example 517, (*S)-3-(8-Ethyl-3-(trifluoromethyl)-[1,2,4]triazolo[4,3-a]pyridin-7-yl)-3-(4-methyl-3-(((*S)-3-methyl-5,5-dioxido-7,7a,8,9,10,11-hexahydro-6H-dipyrido[2,1-d:2′,3′-f][1,2,5]thiadiazepin-6-yl)methyl)phenyl)propanoic Acid] yielded an EC50 of 10.3 nM.

Molecule `Cc1ccc([C@H](CC(=O)O)c2ccn3c(C(F)(F)F)nnc3c2C)nc1CN1C[C@H]2CCCCN2c2ncc(Cl)cc2S1(=O)=O` (relative stereo) [Example 522, (*R)-3-(6-(((*R)-3-Chloro-5,5-dioxido-7,7a,8,9,10,11-hexahydro-6H-dipyrido[2,1-d:2′,3′-f][1,2,5]thiadiazepin-6-yl)methyl)-5-methylpyridin-2-yl)-3-(8-methyl-3-(trifluoromethyl)-[1,2,4]triazolo[4,3-a]pyridin-7-yl)propanoic Acid] showed an EC50 of 5.06 nM.

In turn, `Cc1cnc2c(c1)S(=O)(=O)N(Cc1cc([C@H](c3ccn4c(C(F)(F)F)nnc4c3C)[C@H](C)C(=O)O)ccc1C)CC1(CC1)O2` (relative stereo) [Example 545, (2*S,3*R)-2-Methyl-3-(4-methyl-3-((8′-methyl-1′,1′-dioxidospiro[cyclopropane-1,4′-pyrido[2,3-b][1,4,5]oxathiazepin]-2′(3′H)-yl)methyl)phenyl)-3-(8-methyl-3-(trifluoromethyl)-[1,2,4]triazolo[4,3-a]pyridin-7-yl)propanoic Acid] had an EC50 of 49.8 nM.
